Experimental data from PubChem BioAssay (NCI).
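Five concentrations, 48 hours, 96-well plates. TGI is the concentration that stops growth completely.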

Experiments:
Experiment in all cases: DTP human tumour cell line panel, 48 h
[1] = system: A549 NSCLC
[2] = system: HS 578T breast
[3] = system: SF-295 CNS
[4] = system: OVCAR-4 ovarian
[5] = system: HCT-15 colon
[6] = system: NCI-H522 lung
[7] = system: HT29 colon
[8] = system: MCF7 breast
[9] = system: NCI-H23 lung
[10] = system: TK-10 renal
[11] = system: SK-MEL-28 melanoma
[12] = system: NCI/ADR-RES ovarian
[13] = system: M14 melanoma
[14] = system: A498 renal
[15] = system: 786-0 renal
[16] = system: U251 CNS
[17] = system: OVCAR-8 ovarian
[18] = system: CCRF-CEM leukemia
[19] = system: HCC-2998 colon
[20] = system: PC-3 prostate
[21] = system: T-47D breast
[22] = system: OVCAR-5 ovarian
[23] = system: EKVX NSCLC
[24] = system: NCI-H460 lung
[25] = system: COLO 205 colon
[26] = system: SW-620 colon
[27] = system: SF-268 CNS
[28] = system: SF-539 CNS
[29] = system: CAKI-1 renal
[30] = system: IGROV1 ovarian
[31] = system: MDA-MB-435
[32] = system: KM12 colon
[33] = system: UO-31 renal
[34] = system: LOX IMVI melanoma
[35] = system: UACC-257 melanoma
[36] = system: DU-145 prostate
[37] = system: OVCAR-3 ovarian
[38] = system: SK-MEL-5 melanoma
[39] = system: SK-OV-3 ovarian
[40] = system: HOP-92 NSCLC
[41] = system: MDA-N
[42] = system: HCT-116 colon
[43] = system: SR leukemia
[44] = system: MDA-MB-231 breast
[45] = system: NCI-H226 lung
[46] = system: RPMI-8226 leukemia
[47] = system: K-562 leukemia
[48] = system: SK-MEL-2 melanoma
[49] = system: HL-60(TB) leukemia
[50] = system: BT-549 breast
[51] = system: SNB-75 CNS
[52] = system: SNB-19 CNS
[53] = system: UACC-62 melanoma
[54] = system: ACHN renal
[55] = system: HOP-62 NSCLC

Measured: TGI

C=C1C/C(=C/C)C(=O)O[C@@H]2CCN3CC=C(COC(=O)[C@]1(C)O)[C@H]23
> 100 µM: [1] | [2] | [3] | [4] | [5] | [6] | [7] | [8] | [9] | [10] | [11] | [12] | [13] | [14] | [15] | [16] | [17] | [18] | [19] | [20] | [21] | [22] | [23] | [24] | [25] | [26] | [27] | [28] | [29] | [30] | [31] | [32] | [33] | [34] | [35] | [36] | [37] | [38] | [39] | [40] | [41] | [42] | [43] | [44] | [45] | [46] | [47] | [48] | [49] | [50] | [51] | [52] | [53] | [54] | [55]
